This experiment addresses T1, human mGlu5a receptor (Homo sapiens, UniProt P41594).
T1 construct: expressed in transfected cells; host or cells: EBNA cells (transient transfection); cell membrane homogenates
As to the kind of experiment: [3H]MPEP competition binding on membranes of EBNA cells transfected with human mGlu5a receptor. As to conditions: [3H]MPEP 2 nM, 1 h at 4° C., read-out: Ki (mGluR5). Here is the method:
For binding experiments, cDNA encoding human mGlu5a receptor was transiently transfected into EBNA cells using a procedure described by Schlaeger and Christensen [Cytotechnology 15:1-13 (1998)]. Cell membrane homogenates were stored at −80° C. until the day of assay where upon they were thawed and resuspended and polytronised in 15 mM Tris-HCl, 120 mM NaCl, 100 mM KCl, 25 mM CaCl2, 25 mM MgCl2 binding buffer at pH 7.4 to a final assay concentration of 20 […].
Saturation isotherms were determined by addition of twelve [^3H]MPEP concentrations (0.04-100 nM) to these membranes (in a total volume of 200 μl) for 1 h at 4° C. […] Incubations were performed for 1 h at 4° C.
At the end of the incubation, membranes were filtered onto unifilter (96-well white microplate with bonded GF/C filter preincubated 1 h in 0.1% PEI in wash buffer, Packard BioScience, Meriden, Conn.) with a Filtermate 96 harvester (Packard BioScience) and washed 3 times with cold 50 mM Tris-HCl, pH 7.4 buffer. Nonspecific binding was measured in the presence of […]. The radioactivity on the filter was counted (3 min) on a Packard Top-count microplate scintillation counter with quenching correction after addition of 45 μl of microscint 40 (Canberra Packard S.A., Zutrich, Switzerland) and shaking for 20 min.
The inhibition (antagonists) curves were fitted with a four parameter logistic equation giving IC50, and Hill coefficient using an iterative non linear curve fitting software (Xcel fit).
The Ki value is defined by the following formula: […]
L is the concentration of radioligand used in the binding experiment and the Kd value of the radioligand is empirically determined for each batch of membranes prepared.
T1 sequence (P41594 21-1180 isoform P41594-2 limits assumed): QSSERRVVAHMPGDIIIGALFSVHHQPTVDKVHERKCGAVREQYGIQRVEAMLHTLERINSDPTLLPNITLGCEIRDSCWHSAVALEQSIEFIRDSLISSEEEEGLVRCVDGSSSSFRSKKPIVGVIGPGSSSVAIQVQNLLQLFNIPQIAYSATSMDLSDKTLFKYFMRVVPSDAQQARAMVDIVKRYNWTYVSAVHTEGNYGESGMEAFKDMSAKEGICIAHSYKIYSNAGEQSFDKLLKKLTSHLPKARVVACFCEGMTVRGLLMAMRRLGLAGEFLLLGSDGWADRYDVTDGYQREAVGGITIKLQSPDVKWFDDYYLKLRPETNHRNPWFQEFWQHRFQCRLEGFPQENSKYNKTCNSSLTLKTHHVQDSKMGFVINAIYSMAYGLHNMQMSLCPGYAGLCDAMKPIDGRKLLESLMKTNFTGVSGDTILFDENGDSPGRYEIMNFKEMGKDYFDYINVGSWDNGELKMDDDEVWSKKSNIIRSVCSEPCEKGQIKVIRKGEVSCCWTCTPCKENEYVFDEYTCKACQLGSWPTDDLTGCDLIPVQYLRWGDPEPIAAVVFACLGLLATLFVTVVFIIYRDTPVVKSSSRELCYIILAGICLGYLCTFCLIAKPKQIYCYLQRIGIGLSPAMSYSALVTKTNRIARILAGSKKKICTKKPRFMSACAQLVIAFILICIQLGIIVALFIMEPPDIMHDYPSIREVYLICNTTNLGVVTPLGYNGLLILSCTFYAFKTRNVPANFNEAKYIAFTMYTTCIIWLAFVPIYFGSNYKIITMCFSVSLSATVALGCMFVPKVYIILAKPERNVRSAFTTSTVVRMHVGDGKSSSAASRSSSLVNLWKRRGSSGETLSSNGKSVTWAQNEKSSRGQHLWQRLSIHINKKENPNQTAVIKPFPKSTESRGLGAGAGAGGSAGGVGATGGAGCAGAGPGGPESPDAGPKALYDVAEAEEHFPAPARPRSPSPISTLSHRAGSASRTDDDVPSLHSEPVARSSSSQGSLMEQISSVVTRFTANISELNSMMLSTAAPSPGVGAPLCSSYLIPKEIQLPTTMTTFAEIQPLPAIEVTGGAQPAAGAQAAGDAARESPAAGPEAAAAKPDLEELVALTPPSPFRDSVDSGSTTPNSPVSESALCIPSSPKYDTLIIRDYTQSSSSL
On to `Cc1cc(F)ccc1-n1c(C)nc(C#Cc2ccnc(Cl)c2)c1C` [compound 5, 2-Chloro-4-[1-(4-fluoro-2-methyl-phenyl)-2,5-dimethyl-1H-imidazol-4-ylethynyl]-pyridine], for which the inhibitory constant (Ki) came out at 50 nM.

On to `Cc1cc(-n2c(C)nc(C#Cc3ccnc(Cl)c3)c2C)ccc1F` [compound 6, 2-Chloro-4-[1-(4-fluoro-3-methyl-phenyl)-2,5-dimethyl-1H-imidazol-4-ylethynyl]-pyridine], for which the Ki came to 35 nM.

Regarding `Cc1ccc(-n2c(C)nc(C#Cc3ccnc(Cl)c3)c2C)cc1` [compound 7, 2-Chloro-4-(2,5-dimethyl-1-p-tolyl-1H-imidazol-4-ylethynyl)-pyridine], the Ki turned out to be 21 nM.

Regarding `Cc1ccc(-n2c(C)nc(C#Cc3ccnc(Cl)c3)c2C)cc1Cl` [compound 8, 2-Chloro-4-[1-(3-chloro-4-methyl-phenyl)-2,5-dimethyl-1H-imidazol-4-ylethynyl]-pyridine], the Ki turned out to be 10 nM.

With `COc1ccc(-n2c(C)nc(C#Cc3ccnc(Cl)c3)c2C)cc1` [compound 10, 2-Chloro-4-[1-(4-methoxy-phenyl)-2,5-dimethyl-1H-imidazol-4-ylethynyl]-pyridine], the Ki was 30 nM.

As to `Cc1nc(C#Cc2ccnc(Cl)c2)c(C)n1-c1cccc(OC(F)(F)F)c1` [compound 12, 2-Chloro-4-[2,5-dimethyl-1-(3-trifluoromethoxy-phenyl)-1H-imidazol-4-ylethynyl]-pyridine], the Ki came out at 14 nM.

Turning to `Cc1nc(C#Cc2ccnc(Cl)c2)c(C)n1-c1ccc(C(F)(F)F)cc1` [compound 13, 2-Chloro-4-[2,5-dimethyl-1-(4-trifluoromethyl-phenyl)-1H-imidazol-4-ylethynyl]-pyridine], the Ki worked out at 44 nM.

Turning to `Cc1cc(-n2c(C)nc(C#Cc3ccnc(Cl)c3)c2C)ccc1OC(F)(F)F` [compound 14, 2-Chloro-4-[2,5-dimethyl-1-(3-methyl-4-trifluoromethoxy-phenyl)-1H-imidazol-4-ylethynyl]-pyridine], the Ki was 5 nM.

Take `Cc1ccc(-n2c(C)nc(C#Cc3ccnc(Cl)c3)c2C)nc1` [compound 15, 2-[4-(2-Chloro-pyridin-4-ylethynyl)-2,5-dimethyl-1H-imidazol-1-yl]-5-methyl-pyridine]: the Ki came to 70 nM.

Turning to `Cc1nc(C#Cc2ccnc(Cl)c2)c(C)n1-c1ccc(Cl)nc1` [compound 16, 2-Chloro-5-[4-(2-Chloro-pyridin-4-ylethynyl)-2,5-dimethyl-1H-imidazol-1-yl]-pyridine], the Ki was found to be 86 nM.

Consider `Cc1cc(C(F)(F)F)cc(-n2c(C)nc(C#Cc3ccnc(Cl)c3)c2C)n1` [compound 17, 2-[4-(2-Chloro-pyridin-4-ylethynyl)-2,5-dimethyl-imidazol-1-yl]-6-methyl-4-trifluoromethyl-pyridine], for which the Ki amounted to 79 nM.

`Cc1nc(C#Cc2ccnc(Cl)c2)c(C)n1-c1cnccn1` [compound 18, 2-[4-(2-Chloro-pyridin-4-ylethynyl)-2,5-dimethyl-imidazol-1-yl]-pyrazine]: the inhibitory constant (Ki) is 108 nM.

Turning to `Cc1nc(C#Cc2ccnc(Cl)c2)c(C)n1-c1ccc(Cl)cc1` [compound 19, 2-Chloro-4-[1-(4-chloro-phenyl)-2,5-dimethyl-1H-imidazol-4-ylethynyl]-pyridine], the inhibitory constant (Ki) was determined as 20 nM.

With `Cc1nc(C#Cc2ccnc(Cl)c2)c(C)n1-c1cccc(Cl)c1F` [compound 20, 2-Chloro-4-[1-(3-chloro-2-fluoro-phenyl)-2,5-dimethyl-1H-imidazol-4-ylethynyl]-pyridine], the Ki was 28 nM.

Take `Cc1nc(C#Cc2ccnc(Cl)c2)c(C)n1-c1cccc(C(F)(F)F)c1` [compound 21, 2-Chloro-4-[2,5-dimethyl-1-(3-trifluoromethyl-phenyl)-1H-imidazol-4-ylethynyl]-pyridine]: the inhibition constant (Ki) stood at 55 nM.

For the molecule `Cc1nc(C#Cc2ccnc(Cl)c2)c(C)n1-c1ccc(F)c(Cl)c1` [compound 22, 2-Chloro-4-[1-(3-chloro-4-fluoro-phenyl)-2,5-dimethyl-1H-imidazol-4-ylethynyl]-pyridine], the inhibitory constant (Ki) stood at 31 nM.

Regarding `Cc1cccc(-n2c(C)nc(C#Cc3ccnc(Cl)c3)c2C)n1` [compound 23, 2-[4-(2-Chloro-pyridin-4-ylethynyl)-2,5-dimethyl-1H-imidazol-1-yl]-6-methyl-pyridine], the Ki was 93 nM.

`Cc1nc(C#Cc2ccnc(Cl)c2)c(C)n1-c1cccc(C(F)(F)F)n1` [compound 24, 2-[4-(2-Chloro-pyridin-4-ylethynyl)-2,5-dimethyl-1H-imidazol-1-yl]-6-(trifluoromethyl)-pyridine]: the Ki worked out at 26 nM.

As for `Cc1c(C#Cc2ccnc(Cl)c2)nn(C)c1-c1ccc(F)cc1` [compound 26, 2-Chloro-4-[5-(4-fluoro-phenyl)-1,4-dimethyl-1H-pyrazol-3-ylethynyl]-pyridine], the Ki was 5.9 nM.

In the case of `Cc1nc(C#Cc2ccnc(Cl)c2)c(C(F)F)n1-c1ccc(F)cc1` [compound 27, 2-Chloro-4-[5-difluoromethyl-1-(4-fluoro-phenyl)-2-methyl-1H-imidazol-4-ylethynyl]-pyridine], the Ki stood at 42.2 nM.

In the case of `Cc1nc(C#Cc2ccnc(Cl)c2)c(CO)n1-c1ccc(F)cc1` [compound 28, [5-(2-Chloro-pyridin-4-ylethynyl)-3-(4-fluoro-phenyl)-2-methyl-3H-imidazol-4-yl]-methanol], the Ki amounted to 211 nM.

(Values after patent US20090054490A1, “METHODS FOR THE TREATMENT OF GERD WITH MGLUR5 ANTAGONISTS” (priority 2007, published 2009).)
